Laboratory results: ChEMBL document CHEMBL5661983, “The selective anaplastic lymphoma receptor tyrosine kinase inhibitor ASP3026 induces tumor regression and prolongs survival in non-small cell lung cancer model mice” (Mol Cancer Ther, 2014)
pIC50: −log10 of the molar value. The source made the active and inactive calls. The rule behind the calls is not given here.

Columns and labels:
[1] = target: T1, ALK tyrosine kinase receptor (Homo sapiens, UniProt Q9UM73); test: Inhibition of ALK phosphorylation in human NCI-H2228 cells assessed as phosphorylated ALK level at 10 nmol/L measured after 4 hrs by Western blot analysis relative to control; format: cell-based; design: scale not given: the % may be the effect or the level left
[2] = target: T1, ALK tyrosine kinase receptor; test: Inhibition of ALK in human NCI-H2228 cells assessed as reduction in AKT phosphorylation by measuring phosphorylated AKT level at 10 nmol/L measured after 4 hrs by Western blot analysis relative to control; format: cell-based; design: scale not given: the % may be the effect or the level left
[3] = target: T1, ALK tyrosine kinase receptor; test: Inhibition of ALK in human NCI-H2228 cells assessed as reduction in ERK phosphorylation by measuring phosphorylated ERK level at 1000 nmol/L measured after 4 hrs by Western blot analysis relative to control; format: cell-based; design: scale not given: the % may be the effect or the level left
[4] = target: ALK tyrosine kinase receptor (Homo sapiens, UniProt Q9UM73, R1275Q)
[5] = target: NPM/ALK (Nucleophosmin/ALK tyrosine kinase receptor) (Homo sapiens, UniProt Q9UM73)
NCI-H2228 [6] = test: Antitumor activity against human NCI-H2228 cells xenografted in po dosed NOD.CB17-Prkdcscid/J mouse assessed as tumor growth inhibition administered once daily for 2 weeks; format: functional, organism-based; details: dose 1-30 mg/kg
NCI-H2228 [7] = test: Antitumor activity against human NCI-H2228 cells xenografted in NOD.CB17-Prkdcscid/J mouse assessed as tumor growth inhibition at 1 mg/kg, po administered once daily for 2 weeks relative to control; format: functional; details: NCI-H2228, 336 h, read-out: TGI
NCI-H2228 [8] = test: Antitumor activity against human NCI-H2228 cells xenografted in NOD.CB17-Prkdcscid/J mouse assessed as tumor regression at 3 mg/kg, po administered once daily for 2 weeks relative to control; format: functional
[9] = Cmax in human NCI-H2228 cell xenografted NOD.CB17-Prkdcscid/J mouse plasma at 1 mg/kg/day for 5 days by HPLC-MS analysis; format: ADME, organism-based; details: route po, time 5 day
[10] = Tmax in human NCI-H2228 cell xenografted NOD.CB17-Prkdcscid/J mouse plasma at 3 mg/kg/day for 5 days by HPLC-MS analysis; format: ADME, organism-based; details: route po, time 5 day
[11] = AUC (0 to 24 hrs) in human NCI-H2228 cell xenografted NOD.CB17-Prkdcscid/J mouse plasma at 3 mg/kg/day for 5 days by HPLC-MS analysis; format: ADME, organism-based; details: route po, time 5 day
[12] = AUC (0 to 24 hrs) in human NCI-H2228 cell xenografted NOD.CB17-Prkdcscid/J mouse plasma at 10 mg/kg/day for 5 days by HPLC-MS analysis; format: ADME, organism-based; details: route po, time 5 day
[13] = Cmax in human NCI-H2228 cell xenografted NOD.CB17-Prkdcscid/J mouse tumor at 1 mg/kg/day for 5 days by HPLC-MS analysis; format: ADME, organism-based, Neoplasm; details: route po, time 5 day
[14] = Cmax in human NCI-H2228 cell xenografted NOD.CB17-Prkdcscid/J mouse tumor at 10 mg/kg/day for 5 days by HPLC-MS analysis; format: ADME, organism-based, Neoplasm; details: route po, time 5 day
[15] = Tmax in human NCI-H2228 cell xenografted NOD.CB17-Prkdcscid/J mouse tumor at 1 mg/kg/day for 5 days by HPLC-MS analysis; format: ADME, organism-based, Neoplasm; details: route po, time 5 day
[16] = AUC (0 to 24 hrs) in human NCI-H2228 cell xenografted NOD.CB17-Prkdcscid/J mouse tumor at 1 mg/kg/day for 5 days by HPLC-MS analysis; format: ADME, organism-based, Neoplasm; details: in vivo, po, 120 h, time 5 day
[17] = Ratio of Cmax in human NCI-H2228 cell xenografted NOD.CB17-Prkdcscid/J mouse tumor to plasma at 3 mg/kg/day for 5 days by HPLC-MS analysis; format: ADME, organism-based; details: tumor and plasma, route po, time 5 day
[18] = Ratio of Cmax in human NCI-H2228 cell xenografted NOD.CB17-Prkdcscid/J mouse tumor to plasma at 10 mg/kg/day for 5 days by HPLC-MS analysis; format: ADME, organism-based; details: tumor and plasma, route po, time 5 day
Mus musculus = test: Antitumor activity against hEML4-ALK transgenic C57BL/6J mouse assessed as reduction in pulmonary tumor size at 30 to 100 mg/kg, po administered daily for 10 days and measured on day 7 and 11 by computed tomography scan analysis; format: functional, organism-based; details: dose 30-100 mg/kg, time 7-11 day
[19] = Toxicity in human NCI-H2228 cell xenografted NOD.CB17-Prkdcscid/J mouse assessed as change in body weight at 10 mg/kg, po administered once daily for 5 days in presence of paclitaxel; format: organism-based; details: in vivo, 120 h, time 5 day
[20] = Toxicity in human NCI-H2228 cell xenografted NOD.CB17-Prkdcscid/J mouse assessed as change in body weight at 10 mg/kg, po administered once daily for 5 days in presence of pemetrexed; format: organism-based; details: in vivo, 120 h, time 5 day
NCI-H2228 [21] = test: Potentiation of carboplatin-induced antitumor activity against human NCI-H2228 cells xenografted in NOD.CB17-Prkdcscid/J mouse assessed as reduction in tumor volume at 10 mg/kg, po administered once daily for 5 days; format: functional, organism-based; details: time 5.0 day
EML4-ALK [22] = target: EML4-ALK (Homo sapiens, UniProt Q9UM73); format: cell-based, BaF3
Description: Inhibition of EML4-ALK (unknown origin) transformed in mouse BaF3 cells by HTRF assay

EML4-ALK [23] = target: EML4-ALK (Homo sapiens, UniProt Q9UM73, L1196M); format: cell-based, BaF3
[24] = Selectivity ratio of IC50 for EML4-ALK L1196M mutant (unknown origin) transformed in mouse BaF3 cells to IC50 for EML4-ALK (unknown origin) transformed in mouse BaF3 cells; design: species or system Homo sapiens; details: condition non-small cell lung carcinoma
[25] = Selectivity ratio of IC50 for inhibition of EML4-ALK L1196M mutant (unknown origin) expressed in mouse 3T3 cells assessed as growth inhibition to IC50 for Inhibition of EML4-ALK (unknown origin) expressed in mouse 3T3 cells assessed as growth inhibition; design: species or system Homo sapiens; details: condition non-small cell lung carcinoma
Ephrin type-A receptor 6 = Ephrin type-A receptor 6 (Homo sapiens, UniProt Q9UF33)
[26] = target: Tyrosine-protein kinase FRK (Homo sapiens, UniProt P42685)
[27] = target: Leukocyte tyrosine kinase receptor (Homo sapiens, UniProt P29376)
[28] = target: Muscle, skeletal receptor tyrosine-protein kinase (Homo sapiens, UniProt O15146)
[29] = target: Macrophage-stimulating protein receptor (Homo sapiens, UniProt Q04912)
[30] = target: BDNF/NT-3 growth factors receptor (Homo sapiens, UniProt Q16620)
[31] = target: Tyrosine-protein kinase receptor TYRO3 (Homo sapiens, UniProt Q06418)
[32] = target: Tyrosine-protein kinase Yes (Homo sapiens, UniProt P07947)
NCI-H2228-Luc = details: dose 30 mg/kg; route po; time 90 day

T1 sequence (Q9UM73 19-1620 limits assumed): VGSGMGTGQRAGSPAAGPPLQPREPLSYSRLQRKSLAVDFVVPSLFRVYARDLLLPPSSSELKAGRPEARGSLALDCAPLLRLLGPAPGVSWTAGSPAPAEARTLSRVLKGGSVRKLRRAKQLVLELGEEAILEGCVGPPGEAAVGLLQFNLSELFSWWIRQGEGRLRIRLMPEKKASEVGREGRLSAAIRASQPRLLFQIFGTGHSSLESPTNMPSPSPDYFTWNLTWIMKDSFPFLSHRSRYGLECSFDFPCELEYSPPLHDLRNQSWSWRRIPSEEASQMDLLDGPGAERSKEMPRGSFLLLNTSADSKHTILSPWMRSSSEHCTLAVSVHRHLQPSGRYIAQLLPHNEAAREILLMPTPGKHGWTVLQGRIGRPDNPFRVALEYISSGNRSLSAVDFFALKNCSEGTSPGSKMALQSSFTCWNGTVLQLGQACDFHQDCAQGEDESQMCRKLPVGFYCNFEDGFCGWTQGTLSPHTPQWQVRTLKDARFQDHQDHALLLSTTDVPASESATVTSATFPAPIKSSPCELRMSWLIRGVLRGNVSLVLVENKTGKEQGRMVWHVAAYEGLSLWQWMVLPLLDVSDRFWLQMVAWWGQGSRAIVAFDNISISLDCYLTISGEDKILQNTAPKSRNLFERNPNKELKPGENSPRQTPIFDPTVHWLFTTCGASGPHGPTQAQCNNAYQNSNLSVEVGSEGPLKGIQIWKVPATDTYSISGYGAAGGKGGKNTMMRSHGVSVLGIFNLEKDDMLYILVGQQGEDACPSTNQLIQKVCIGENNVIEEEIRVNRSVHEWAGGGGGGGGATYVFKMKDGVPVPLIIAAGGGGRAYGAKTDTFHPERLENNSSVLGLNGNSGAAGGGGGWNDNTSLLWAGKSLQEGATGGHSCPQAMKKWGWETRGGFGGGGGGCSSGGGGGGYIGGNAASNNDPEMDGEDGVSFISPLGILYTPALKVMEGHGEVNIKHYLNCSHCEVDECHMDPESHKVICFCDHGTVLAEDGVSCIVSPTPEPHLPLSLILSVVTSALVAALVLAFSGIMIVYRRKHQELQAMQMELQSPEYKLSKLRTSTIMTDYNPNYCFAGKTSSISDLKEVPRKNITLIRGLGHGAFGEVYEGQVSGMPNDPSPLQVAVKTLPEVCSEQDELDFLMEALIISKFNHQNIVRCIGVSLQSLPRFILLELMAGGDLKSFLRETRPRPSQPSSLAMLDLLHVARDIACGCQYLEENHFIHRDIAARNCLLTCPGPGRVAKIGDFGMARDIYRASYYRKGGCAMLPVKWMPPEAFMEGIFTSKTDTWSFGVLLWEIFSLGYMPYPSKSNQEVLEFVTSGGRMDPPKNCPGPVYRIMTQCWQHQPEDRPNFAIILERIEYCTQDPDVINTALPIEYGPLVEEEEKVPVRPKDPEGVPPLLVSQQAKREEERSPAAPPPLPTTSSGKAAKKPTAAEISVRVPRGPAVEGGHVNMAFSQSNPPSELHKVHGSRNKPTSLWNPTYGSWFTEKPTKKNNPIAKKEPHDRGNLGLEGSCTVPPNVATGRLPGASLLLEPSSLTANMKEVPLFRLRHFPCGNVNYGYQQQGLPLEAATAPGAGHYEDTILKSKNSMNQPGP
Sequence of Ephrin type-A receptor 6 (Q9UF33 whole entry): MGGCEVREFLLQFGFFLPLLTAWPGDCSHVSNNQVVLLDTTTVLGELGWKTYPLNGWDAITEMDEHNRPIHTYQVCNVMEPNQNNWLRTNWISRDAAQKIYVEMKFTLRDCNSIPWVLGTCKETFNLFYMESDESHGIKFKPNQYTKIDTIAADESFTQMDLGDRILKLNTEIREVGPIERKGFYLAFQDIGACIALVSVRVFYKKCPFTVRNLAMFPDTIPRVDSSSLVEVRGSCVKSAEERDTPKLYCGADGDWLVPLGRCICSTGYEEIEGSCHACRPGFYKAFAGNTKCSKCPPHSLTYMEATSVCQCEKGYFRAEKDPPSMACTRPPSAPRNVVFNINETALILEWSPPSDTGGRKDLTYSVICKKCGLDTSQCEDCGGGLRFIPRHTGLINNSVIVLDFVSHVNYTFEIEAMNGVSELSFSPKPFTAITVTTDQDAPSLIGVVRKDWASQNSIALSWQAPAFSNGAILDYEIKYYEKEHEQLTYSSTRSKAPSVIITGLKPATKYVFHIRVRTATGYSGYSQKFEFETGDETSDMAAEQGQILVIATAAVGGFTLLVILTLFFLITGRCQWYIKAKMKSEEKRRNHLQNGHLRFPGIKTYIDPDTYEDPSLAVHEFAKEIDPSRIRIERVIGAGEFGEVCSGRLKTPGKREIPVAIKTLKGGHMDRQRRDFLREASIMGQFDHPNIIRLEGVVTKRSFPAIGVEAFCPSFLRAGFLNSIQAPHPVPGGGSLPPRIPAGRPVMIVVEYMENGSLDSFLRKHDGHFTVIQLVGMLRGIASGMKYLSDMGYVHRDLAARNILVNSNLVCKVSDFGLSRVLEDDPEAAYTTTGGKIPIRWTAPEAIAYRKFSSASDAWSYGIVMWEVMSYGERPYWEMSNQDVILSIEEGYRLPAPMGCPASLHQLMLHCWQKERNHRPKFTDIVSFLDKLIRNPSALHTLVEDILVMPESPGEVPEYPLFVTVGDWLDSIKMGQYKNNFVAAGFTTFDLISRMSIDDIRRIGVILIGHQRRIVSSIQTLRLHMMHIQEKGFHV
Sequence of Tyrosine-protein kinase receptor TYRO3 (Q06418 whole entry): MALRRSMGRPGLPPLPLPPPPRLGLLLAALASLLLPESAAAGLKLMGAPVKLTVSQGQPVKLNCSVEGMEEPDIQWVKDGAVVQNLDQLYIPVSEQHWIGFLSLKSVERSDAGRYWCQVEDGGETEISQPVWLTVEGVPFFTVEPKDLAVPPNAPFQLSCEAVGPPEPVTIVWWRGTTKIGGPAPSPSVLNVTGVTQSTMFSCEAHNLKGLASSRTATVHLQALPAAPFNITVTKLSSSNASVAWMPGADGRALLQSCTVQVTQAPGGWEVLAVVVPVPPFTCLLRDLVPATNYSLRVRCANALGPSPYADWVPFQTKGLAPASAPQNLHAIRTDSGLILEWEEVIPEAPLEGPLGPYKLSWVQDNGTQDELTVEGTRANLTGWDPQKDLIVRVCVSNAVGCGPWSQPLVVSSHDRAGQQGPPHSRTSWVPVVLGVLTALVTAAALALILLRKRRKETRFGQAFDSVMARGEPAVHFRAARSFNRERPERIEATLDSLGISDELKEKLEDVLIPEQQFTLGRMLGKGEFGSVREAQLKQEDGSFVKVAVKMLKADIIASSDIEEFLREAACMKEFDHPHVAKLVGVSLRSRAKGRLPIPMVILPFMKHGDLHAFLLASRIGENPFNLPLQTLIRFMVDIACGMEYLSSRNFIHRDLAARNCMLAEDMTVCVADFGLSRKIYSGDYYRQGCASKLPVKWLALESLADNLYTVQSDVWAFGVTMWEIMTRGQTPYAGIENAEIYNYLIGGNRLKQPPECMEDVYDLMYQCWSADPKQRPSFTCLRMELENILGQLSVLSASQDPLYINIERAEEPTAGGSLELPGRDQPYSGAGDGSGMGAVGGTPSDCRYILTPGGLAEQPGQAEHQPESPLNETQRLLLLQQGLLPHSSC
Sequence of Tyrosine-protein kinase FRK (P42685 whole entry): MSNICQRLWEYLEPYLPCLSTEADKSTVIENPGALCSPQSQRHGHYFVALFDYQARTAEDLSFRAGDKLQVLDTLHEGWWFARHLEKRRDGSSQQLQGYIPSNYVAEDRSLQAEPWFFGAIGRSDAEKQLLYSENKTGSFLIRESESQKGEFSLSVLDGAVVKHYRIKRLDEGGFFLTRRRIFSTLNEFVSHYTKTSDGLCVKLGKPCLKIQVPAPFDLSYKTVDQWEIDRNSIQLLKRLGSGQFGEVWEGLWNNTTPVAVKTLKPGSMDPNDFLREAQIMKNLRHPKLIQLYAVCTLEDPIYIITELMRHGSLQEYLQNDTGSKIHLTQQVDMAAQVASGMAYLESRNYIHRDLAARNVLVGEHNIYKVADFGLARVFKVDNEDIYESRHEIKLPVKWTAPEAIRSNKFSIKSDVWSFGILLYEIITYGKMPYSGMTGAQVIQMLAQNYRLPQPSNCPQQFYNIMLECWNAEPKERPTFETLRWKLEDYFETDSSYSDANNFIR
Sequence of BDNF/NT-3 growth factors receptor (Q16620 whole entry): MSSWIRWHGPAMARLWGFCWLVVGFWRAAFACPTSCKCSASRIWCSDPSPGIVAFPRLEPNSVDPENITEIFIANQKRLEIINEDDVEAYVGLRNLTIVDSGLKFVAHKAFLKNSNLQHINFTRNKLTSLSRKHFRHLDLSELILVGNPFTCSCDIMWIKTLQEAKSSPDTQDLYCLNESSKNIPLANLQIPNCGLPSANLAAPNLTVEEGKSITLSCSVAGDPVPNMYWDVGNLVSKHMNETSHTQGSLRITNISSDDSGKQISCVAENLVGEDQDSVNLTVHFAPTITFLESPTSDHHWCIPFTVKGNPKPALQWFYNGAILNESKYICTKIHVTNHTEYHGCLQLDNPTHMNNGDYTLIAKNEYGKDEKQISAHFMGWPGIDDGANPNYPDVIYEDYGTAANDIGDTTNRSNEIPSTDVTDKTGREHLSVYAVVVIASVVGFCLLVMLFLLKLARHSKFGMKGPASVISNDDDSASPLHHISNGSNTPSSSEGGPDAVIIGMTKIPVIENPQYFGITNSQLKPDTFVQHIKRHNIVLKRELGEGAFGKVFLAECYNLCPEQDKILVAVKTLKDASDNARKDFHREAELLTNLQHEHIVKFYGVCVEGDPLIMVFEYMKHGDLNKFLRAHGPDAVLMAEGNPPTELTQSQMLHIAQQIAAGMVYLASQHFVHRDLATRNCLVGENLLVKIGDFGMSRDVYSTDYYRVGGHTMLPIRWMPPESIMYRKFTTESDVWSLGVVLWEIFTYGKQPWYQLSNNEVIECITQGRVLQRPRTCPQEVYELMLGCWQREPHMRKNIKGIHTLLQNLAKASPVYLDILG
Sequence of ALK tyrosine kinase receptor (Homo sapiens, UniProt Q9UM73, R1275Q) (Q9UM73 19-1620 R1275Q limits assumed): as the sequence (Q9UM73 19-1620 limits assumed) above, with R1257Q counted along it
Sequence of EML4-ALK (Homo sapiens, UniProt Q9UM73, L1196M) (Q9UM73 19-1620 L1196M limits assumed): as the sequence (Q9UM73 19-1620 limits assumed) above, with L1178M counted along it

**Q.** With `COc1cc(N2CCC(N3CCN(C)CC3)CC2)ccc1Nc1ncnc(Nc2ccccc2S(=O)(=O)C(C)C)n1` [ASP-3026] as the molecule, how does the Activity [1] read?
**A.** 70%

**Q.** What about the Activity [2] of the same molecule?
**A.** 120%

**Q.** What about the Activity [3] of the same molecule?
**A.** 36%

**Q.** What about the pIC50 [4] of the same molecule?
**A.** 8.27

**Q.** And the pIC50 [5]?
**A.** 8.17

**Q.** What about the TGI (NCI-H2228 [6]) of the same molecule?
**A.** Dose-Dependent Effect

**Q.** What about the inhibition in vivo at 1 mg/kg (NCI-H2228 [7]) of the same molecule?
**A.** 69%

**Q.** What about the Activity (NCI-H2228 [8]) of the same molecule?
**A.** 4%

**Q.** What about the Cmax [9] of the same molecule?
**A.** 44.3 ng/mL

**Q.** What about the Tmax [10] of the same molecule?
**A.** 4 h

**Q.** What about the AUC at 120 h [11] of the same molecule?
**A.** 1820 ng·h/mL

**Q.** What about the AUC at 120 h [12] of the same molecule?
**A.** 5990 ng·h/mL

**Q.** And the Cmax [13]?
**A.** 850 ng/g

**Q.** And the Cmax [14]?
**A.** 8990 ng/g

**Q.** And the Tmax [15]?
**A.** 4 h

**Q.** What about the AUC [16] of the same molecule?
**A.** 13600 ng·h/g

**Q.** And the Kp at 120 h [17]?
**A.** 16

**Q.** And the Kp at 120 h [18]?
**A.** 18

**Q.** And the Activity (Mus musculus)?
**A.** Active

**Q.** What about the Activity [19] of the same molecule?
**A.** Non-Toxic

**Q.** What about the Activity [20] of the same molecule?
**A.** Non-Toxic

**Q.** What about the Activity (NCI-H2228 [21]) of the same molecule?
**A.** inactive

**Q.** And the pIC50 (EML4-ALK [22])?
**A.** 8.00

**Q.** What about the pIC50 (EML4-ALK [23]) of the same molecule?
**A.** 7.49

**Q.** What about the “Ratio IC50” value [24] of the same molecule?
**A.** 3.2

**Q.** And the “Ratio IC50” value [25]?
**A.** 3.9

**Q.** And the pIC50 (Ephrin type-A receptor 6)?
**A.** < 6.00

**Q.** What about the pIC50 [26] of the same molecule?
**A.** 7.40

**Q.** What about the pIC50 [27] of the same molecule?
**A.** 7.21

**Q.** What about the pIC50 [28] of the same molecule?
**A.** < 7.00

**Q.** What about the pIC50 [29] of the same molecule?
**A.** < 6.00

**Q.** And the pIC50 [30]?
**A.** < 6.00

**Q.** What about the pIC50 [31] of the same molecule?
**A.** < 6.00

**Q.** What about the pIC50 [32] of the same molecule?
**A.** 7.50

**Q.** What about the MST (NCI-H2228-Luc) of the same molecule?
**A.** >90 days
